Read-outs that look alike come from different tables or passages of the source.
Key:
human hepatocytes = conditions: cited from earlier work
[1] = system: isolated mouse liver mitochondria; conditions: In vitro Assay; ref Porceddu 2012; cited from earlier work
[2] = read-out: Human plasma Cmax; total plasma Cmax.tot, median of 9 literature references; cited from earlier work
[3] = plasma free fraction; cited from earlier work
hLiMTs [4] = experiment: Combined HCI (HCS) and cellular ATP 3D assay in hLiMTs; conditions: for DILI prediction hLiMTs (HCS-MEC): Microtissue model structural based (HCI), combined HCS and ATP, MEC < 25 × Cmax.tot cut-off; for hLiMTs <25x Avg Cmax ATP / hLiMTs <100x Avg Cmaxu ATP: ATP endpoint; for hLiMTs <25x Avg Cmax ATP / hLiMTs <25x Avg Cmax HCS / hLiMTs <25x Avg Cmax All: cut-off <25x Avg Cmax; for hLiMTs <100x Avg Cmaxu ATP / hLiMTs <100x Avg Cmaxu HCS / hLiMTs <100x Avg Cmaxu All: cut-off <100x Avg Cmaxu; for hLiMTs <25x Avg Cmax HCS / hLiMTs <100x Avg Cmaxu HCS: HCS endpoints; for hLiMTs <25x Avg Cmax All: all endpoints (ATP and HCS); for hLiMTs Cmax max All / hLiMTs Cmax min All / hLiMTs <10 uM All / hLiMTs <100x Avg Cmaxu All: all endpoints; for hLiMTs Cmax max All: Cmax max used; for hLiMTs Cmax min All: Cmax min used; for hLiMTs <10 uM All: cut-off <10 uM; for minimal effective concentration: Homo sapiens
[5] = Plasma free fraction (fu) and unbound Cmax (Cmax,u); assay type: in vitro ADME, human; conditions: unbound plasma Cmax
Procedure: The prediction of DILI severity was evaluated further using the 3D combined HCI assays using plasma-free fraction. The majority of fu values were obtained from literature, when unavailable in-house prediction was utilised. Unbound plasma Cmax concentrations (Cmax,u) were derived by multiplying total plasma Cmax with the corresponding free fraction (fu) for each compound.

HepaRG spheroids = experiment: Combined HCI (HCS) and cellular ATP 3D assay in HepaRG spheroids; conditions: for HepaRG <25x Avg Cmax ATP / HepaRG <100x Avg Cmaxu ATP: ATP endpoint; for HepaRG <25x Avg Cmax ATP / HepaRG <25x Avg Cmax HCS / HepaRG <25x Avg Cmax All: cut-off <25x Avg Cmax; for HepaRG <100x Avg Cmaxu ATP / HepaRG <100x Avg Cmaxu HCS / HepaRG <100x Avg Cmaxu All: cut-off <100x Avg Cmaxu; for HepaRG <25x Avg Cmax HCS / HepaRG <100x Avg Cmaxu HCS: HCS endpoints; for HepaRG <25x Avg Cmax All: all endpoints (ATP and HCS); for HepaRG Cmax max All / HepaRG Cmax min All / HepaRG <10 uM All / HepaRG <100x Avg Cmaxu All: all endpoints; for HepaRG Cmax max All: Cmax max used; for HepaRG Cmax min All: Cmax min used; for HepaRG <10 uM All: cut-off <10 uM; for AC50 / minimal effective concentration: Homo sapiens; for HepaRG <25x Avg Cmax ATP / HepaRG <100x Avg Cmaxu ATP / HepaRG <25x Avg Cmax HCS / HepaRG <100x Avg Cmaxu HCS / HepaRG <25x Avg Cmax All / HepaRG Cmax max All / HepaRG Cmax min All / HepaRG <10 uM All / HepaRG <100x Avg Cmaxu All / AC50 / minimal effective concentration: HepaRG; for DILI prediction HepaRG spheroids (HCS-MEC): Microtissue model structural based (HCI), combined HCS and ATP, MEC < 25 × Cmax.tot cut-off
[6] = in vivo; cited from earlier work
[7] = system: THLE or HepG2 cells, isolated mitochondria, BSEP; conditions: cited from earlier work
hLiMTs [8] = conditions: cited from earlier work
[9] = in vivo; cited from earlier work; remark: listed apart in the source
PHH = conditions: cited from earlier work
[10] = system: primary human hepatocytes, NIH3T3 fibroblasts, BSEP, CYP3A4; conditions: cited from earlier work
[11] = In vitro Assay, ref Proctor 2017
[12] = In vitro Assay, ref Schadt 2015

Row | SMILES | Cmax [2] [nM] | fu [3] | DILI prediction hLiMTs (HCS-MEC) (hLiMTs [4]) | hLiMTs <25x Avg Cmax ATP (hLiMTs [4]) | hLiMTs <100x Avg Cmaxu ATP (hLiMTs [4]) | hLiMTs <25x Avg Cmax HCS (hLiMTs [4]) | hLiMTs <100x Avg Cmaxu HCS (hLiMTs [4]) | hLiMTs <25x Avg Cmax All (hLiMTs [4]) | hLiMTs Cmax max All (hLiMTs [4]) | hLiMTs Cmax min All (hLiMTs [4]) | hLiMTs <10 uM All (hLiMTs [4]) | hLiMTs <100x Avg Cmaxu All (hLiMTs [4]) | Human plasma Cmax,u [5] [nM] | HepaRG <25x Avg Cmax ATP (HepaRG spheroids) | HepaRG <100x Avg Cmaxu ATP (HepaRG spheroids) | HepaRG <25x Avg Cmax HCS (HepaRG spheroids) | HepaRG <100x Avg Cmaxu HCS (HepaRG spheroids) | HepaRG <25x Avg Cmax All (HepaRG spheroids) | HepaRG Cmax max All (HepaRG spheroids) | HepaRG Cmax min All (HepaRG spheroids) | other results
1 | CC[C@H]1OC(=O)[C@H](C)[C@@H](O[C@H]2C[C@@](C)(OC)[C@@H](O)[C@H](C)O2)[C@H](C)[C@@H](O[C@@H]2O[C@H](C)C[C@H](N(C)C)[C@H]2O)[C@](C)(O)C[C@@H](C)C(=O)[C@H](C)[C@@H](O)[C@]1(C)O [erythromycin] | 6200 | 0.100 | -VE | -ve | -ve | -ve | -ve | -ve | -ve | -ve | -ve | -ve | 620 | +ve | -ve | +ve | +ve (<100x Avg Cmaxu) | +ve | +ve | +ve | Structural based (HCI) (human hepatocytes; In vitro Assay, ref Xu 2008): -VE; DILI in vitro assay prediction, Xu (2008) (human hepatocytes; Structural based (HCI), human hepatocytes, ref Xu et al. 2008): -VE; in vitro data EC2<=1x Cmax [1]: +VE; HepaRG <10 uM All (HepaRG spheroids): -ve; HepaRG <100x Avg Cmaxu All (HepaRG spheroids): +ve (<100x Avg Cmaxu); AC50 (HepaRG spheroids; read-out: ATP endpoint AC50): 214 µM; minimal effective concentration (HepaRG spheroids; read-out: ATP endpoint MEC): 128 µM; AC50 (HepaRG spheroids; read-out: HCS endpoint AC50): 294 µM; minimal effective concentration (HepaRG spheroids; read-out: HCS endpoint MEC): 38.1 µM; DILI prediction HepaRG spheroids (HCS-MEC) (HepaRG spheroids): +VE (MEC < 25 × Cmax.tot cut-off)
2 | Nc1cc(N2CCCCC2)nc(N)[n+]1[O-] [minoxidil] | 1200 | 0.990 | -VE | -ve | -ve | -ve | +ve (<100x Avg Cmaxu) | -ve | -ve | -ve | -ve | +ve (<100x Avg Cmaxu) | 1183 | -ve | -ve | -ve | -ve | -ve | -ve | -ve | Assigned DILI category [6]: 1; In vivo DILI [6]: -VE; Partition Hybrid HRM Score ≥8, Aleo (2019) [7]: -VE; Rule of Two hybrid HRM Score ≥8, Aleo (2019) [7]: -VE; minimal effective concentration (hLiMTs [4]; read-out: HCS endpoint MEC): 111 µM; hLiMTs ATP <100uM (hLiMTs [8]; [11]): -VE; hLiMTs/100uM, Proctor (2017) (hLiMTs [8]; hLiMTs, ATP, IC50 threshold 100 µM, ref Proctor et al. 2017): -VE; DILI +VE (5-8), DILI -VE (-4) [9]: -VE; DILI severity category (Chen 2016) [9]: No; DILI severity category (Chen et al. [2016]) [9]: No; HepaRG <10 uM All (HepaRG spheroids): -ve; HepaRG <100x Avg Cmaxu All (HepaRG spheroids): -ve; DILI prediction HepaRG spheroids (HCS-MEC) (HepaRG spheroids): -VE; PHH/100uM, Proctor (2017) (PHH; 2D PHH, ATP, IC50 threshold 100 µM, ref Proctor et al. 2017): -VE; PHH ATP <100uM (PHH; [11]): -VE
3 | CCOC(=O)CN[C@@H](C(=O)N1CC[C@H]1C(=O)NCc1ccc(/C(N)=N\O)cc1)C1CCCCC1 [ximelagatran] | 380 | 0.210 | -VE | -ve | -ve | -ve | -ve | -ve | -ve | -ve | -ve | -ve | 80 | -ve | -ve | -ve | -ve | -ve | -ve | -ve | DILI in vitro assay prediction, Schadt (2015) ([10]; BSEP & Metabolism based, ref Schadt et al. 2015): -VE; Cellular toxicity (3T3 cells) [10, 12]: -VE; Combined Assay [10, 12]: -VE; GSH adduct HML [10, 12]: -VE; Hepatocyte cellular toxicity [10, 12]: -VE; MitoTox 3T3 [10, 12]: -VE; TDI CYP3A4 [10, 12]: -VE; hBSEP inhibition [10, 12]: -VE; in vitro data EC2<=1x Cmax [1]: -VE; minimal effective concentration (hLiMTs [4]; read-out: ATP endpoint MEC): 61.8 µM; HepaRG <10 uM All (HepaRG spheroids): -ve; HepaRG <100x Avg Cmaxu All (HepaRG spheroids): -ve; minimal effective concentration (HepaRG spheroids; read-out: ATP endpoint MEC): 149 µM; minimal effective concentration (HepaRG spheroids; read-out: HCS endpoint MEC): 133 µM; DILI prediction HepaRG spheroids (HCS-MEC) (HepaRG spheroids): -VE

Reference: paper PMC7395068, “The evolution of strategies to minimise the risk of human drug-induced liver injury (DILI) in drug discovery and development” (Archives of Toxicology, 2020)
